Values of other authors in paper PMC7904743, “WIDOCK: a reactive docking protocol for virtual screening of covalent inhibitors” (Journal of Computer-Aided Molecular Design, 2021).
Like-named read-outs stand apart in the source and are kept apart here.

Assays:
[1] = thiol reactivity, cited from earlier work
NUDT7 = details: protein labeling at 200 μM; experimental actives if % labeling higher than 50%; cited from earlier work
OTUB2 = details: experimental actives if % labeling higher than 50%, cited from earlier work
[2] = natural log of average rate constant k
[3] = natural logarithm of average rate constant
[4] = natural log of average kinetic rate constant
[5] = natural log of average rate constant

SMILES	ln(avg k) [1, 2]	ln(avg k) [1, 3]	NUDT7 % labeling (NUDT7)	OTUB2 % labeling (OTUB2)	ln(avg k) [1, 4]	ln(avg k) [1, 5]	OTUB2 % labeling (OTUB2; OTUB2 protein labeling)
Cc1cccc(N2CCN(C(=O)CCl)CC2)c1 [PCM-0102185, Cc1cccc(N2CCN(C(=O)CCl)CC2)c1]	-15.479	-15.479	5%	0%	–	–	–
O=C(CCl)N1CCN(S(=O)(=O)c2ccccc2F)CC1 [PCM-0102281, O=C(CCl)N1CCN(S(=O)(=O)c2ccccc2F)CC1]	-15.235	-15.235	14%	0%	–	–	–
O=C(CCl)NCc1cccc(Cl)c1 [PCM-0102174, O=C(CCl)NCc1cccc(Cl)c1]	-16.752	-16.752	0%	25%	–	–	–
Cc1ccc(NC(=O)CCl)cc1S(N)(=O)=O [PCM-0102177, Cc1ccc(NC(=O)CCl)cc1S(N)(=O)=O]	-15.256	-15.256	10%	27%	–	–	–
O=C(CCl)Nc1ccc(N2CCCC2=O)cc1 [PCM-0102915, O=C(CCl)Nc1ccc(N2CCCC2=O)cc1]	–	–	0%	–	-15.819	-15.819	49%
Cc1ccc(-n2nc(C)cc2NC(=O)CCl)cc1 [PCM-0102224, Cc1ccc(-n2nc(C)cc2NC(=O)CCl)cc1]	-16.116	-16.116	0%	35%	–	–	–
CC1CCc2c(sc(NC(=O)CCl)c2C#N)C1 (stereo not shown) [PCM-0102420, CC1CCc2c(sc(NC(=O)CCl)c2C#N)C1]	-16.452	-16.452	47%	0%	–	–	–
O=C(CCl)Nc1ccc(Br)cc1 [PCM-0102992, O=C(CCl)Nc1ccc(Br)cc1]	–	–	11%	–	-15.800	-15.800	8%
NS(=O)(=O)c1ccc(NC(=O)CCl)cc1 [PCM-0102807, NS(=O)(=O)c1ccc(NC(=O)CCl)cc1]	–	–	0%	–	-15.463	-15.463	29%
O=C(CCl)N1CCN(c2cnccn2)CC1 [PCM-0102889, O=C(CCl)N1CCN(c2cnccn2)CC1]	–	–	0%	–	-15.833	-15.833	0%
Cc1cccc(CN2CCN(C(=O)CCl)CC2)c1 [PCM-0102340, Cc1cccc(CN2CCN(C(=O)CCl)CC2)c1]	-15.593	-15.593	0%	17%	–	–	–
Cc1sc(NC(=O)CCl)c(C)c1C [PCM-0102968, Cc1sc(NC(=O)CCl)c(C)c1C]	–	–	0%	–	-16.020	-16.020	0%
COc1ccccc1NC(=O)CCl [PCM-0102236, COc1ccccc1NC(=O)CCl]	-16.359	-16.359	0%	28%	–	–	–
CC(NC(=O)CCl)C(=O)N1CCCCC1 (stereo not shown) [PCM-0102598, CC(NC(=O)CCl)C(=O)N1CCCCC1]	-16.794	-16.794	0%	0%	–	–	–
CC(=O)NNC(=O)CCl [PCM-0102310, CC(=O)NNC(=O)CCl]	-16.812	-16.812	0%	18%	–	–	–
O=C(CCl)NCc1nc2ccccc2s1 [PCM-0102803, O=C(CCl)NCc1nc2ccccc2s1]	–	–	0%	–	-16.252	-16.252	37%

SMILES	ln(avg k) [1, 2]	ln(avg k) [1, 3]	NUDT7 % labeling (NUDT7)	OTUB2 % labeling (OTUB2)	ln(avg k) [1, 4]	ln(avg k) [1, 5]	OTUB2 % labeling (OTUB2; OTUB2 protein labeling)
O=C(CCl)NC(=O)NCC1COc2ccccc2O1 (stereo not shown) [PCM-0102092, O=C(CCl)NC(=O)NCC1COc2ccccc2O1]	-15.940	-15.940	0%	0%	–	–	–
CC(=O)N1CCN(C(=O)CCl)CC1 [PCM-0102535, CC(=O)N1CCN(C(=O)CCl)CC1]	-15.085	-15.085	6%	0%	–	–	–
O=C(CCl)N1CCCc2cccc(F)c21 [PCM-0103071, O=C(CCl)N1CCCc2cccc(F)c21]	–	–	40%	–	-16.007	-16.007	0%
N#Cc1ccccc1S(=O)(=O)N1CCN(C(=O)CCl)CC1 [PCM-0102395, N#Cc1ccccc1S(=O)(=O)N1CCN(C(=O)CCl)CC1]	-15.498	-15.498	28%	0%	–	–	–
Cc1cc(Cl)ccc1NC(=O)CCl [PCM-0102214, Cc1cc(Cl)ccc1NC(=O)CCl]	-16.385	-16.385	8%	39%	–	–	–
Cc1csc(NC(=O)CCl)n1 [PCM-0102872, Cc1csc(NC(=O)CCl)n1]	–	–	16%	–	-15.785	-15.785	0%
CN(Cc1ccc(Cl)s1)C(=O)CCl [PCM-0102898, CN(Cc1ccc(Cl)s1)C(=O)CCl]	–	–	29%	–	-15.575	-15.575	0%
O=C(CCl)NC1(c2ccc3c(c2)OCCO3)CCCC1 [PCM-0102951, O=C(CCl)NC1(c2ccc3c(c2)OCCO3)CCCC1]	–	–	100%	–	-16.488	-16.488	0%
CN(Cc1cccc(F)c1)C(=O)CCl [PCM-0102747, CN(Cc1cccc(F)c1)C(=O)CCl]	–	–	0%	–	-16.175	-16.175	0%
CCOC(=O)N1CCC(NC(=O)CCl)CC1 [PCM-0102255, CCOC(=O)N1CCC(NC(=O)CCl)CC1]	-15.985	-15.985	0%	24%	–	–	–
O=C(CCl)Nc1ccccc1[N+](=O)[O-] [PCM-0102232, O=C(CCl)Nc1ccccc1[N+](=O)[O-]]	-15.562	-15.562	24%	20%	–	–	–
O=C1CN(C(=O)CCl)C2(CCCCC2)C(=O)N1 [PCM-0102139, O=C1CN(C(=O)CCl)C2(CCCCC2)C(=O)N1]	-15.673	-15.673	22%	5%	–	–	–
Cc1ccc(NC(=O)NC(=O)CCl)cc1 [PCM-0102623, Cc1ccc(NC(=O)NC(=O)CCl)cc1]	-16.273	-16.273	11%	0%	–	–	–
CC(NC(=O)CCl)c1ccc(F)cc1F (stereo not shown) [PCM-0103035, CC(NC(=O)CCl)c1ccc(F)cc1F]	–	–	15%	–	-15.881	-15.881	34%
Cc1nc(-c2cccc(NC(=O)CCl)c2)cs1 [PCM-0102262, Cc1nc(-c2cccc(NC(=O)CCl)c2)cs1]	-15.670	-15.670	0%	63%	–	–	–
